Measurements published in US20050014675A1, “Cell migration inhibitor” (priority 2001, published 2005).
Counter-ions that a name gives are not always drawn. Non-standard residues stand in square brackets, D forms with d. Residues, ends and D or L forms follow the SMILES beside them. No end group written: not given here. dTrp(2-Me) = Cc1[nH]c2ccccc2c1C[C@@H](N)C(=O)O; d2Nal = N[C@H](Cc1ccc2ccccc2c1)C(=O)O

How the values were obtained:
Format in all cases: cell-based
[1] = test system: human vascular smooth muscle cells; assay: PDGF-induced migration of human vascular smooth muscle cells (Boyden's chamber); conditions: for action on the PDGF-induced migration of vascular smooth muscle cells (summary of Test 1): Test 1, summary statement; for suppressive action on PDGF-induced migration / action on PDGF-induced migration: human vascular smooth muscle cells, FIG. 4; for suppressive action on PDGF-induced migration: compound at 10 nM
Procedure: (§1) Human vascular smooth muscle cells were cultured in SmBM with the additive factors in a culture incubator (37° C., 5% CO2/95% air) and cells at the 5th-9th passage were used in the test. Rabbit vascular smooth muscle cells were obtained by an explant technique from the media of rabbit thoracic aorta and cultured in DMEM with 10% fetal bovine serum; cells at the 5th-7th passage were used in the test.
(§2) Cells that proliferated to confluence were detached with trypsin, washed twice with an additive factor free medium, dispersed in SmBM containing 0.1% fetal bovine serum and prepared to a cell density of 5×10^5 cells/mL. Migration of cells was assayed according to Koyama et al. method (J. Biol. Chem. (1993) 268:13301-13308) using a 48-well Boyden's chamber (Neuro probe). To be more specific, 28 μL of SmBM containing 10 ng/mL of PDGF and 0.1% FBS was placed in the lower chamber and 50 μL of a cell dispersion preliminarily incubated with each assay compound for 10 minutes was placed in the upper chamber. The upper chamber and the lower chamber were separated by a polycarbonate filter (having pores 8 μm in diameter) precoated with type I collagen (Nitta Gelatin Inc.) Since the placement of the cell dispersion, the Boyden's chamber was incubated in a culture incubator (37° C., 5% CO2/95% air) for 4 hours. The cells on the upper side of the filter were scraped off and the cells that had migrated to the lower side of the filter were fixed in methanol and stained with Diff-Quick staining solution (International Reagents Corporation). The filter had been air-dried on a glass slide and sealed with Enteran New. The cells were counted under a high-power microscope (×200) in 4 fields per well and the number of cells that had migrated was averaged to determine the migration activity.
The result of each treated group was represented by the mean±standard deviation for 3 wells. Statistical significance was estimated by one-way ANOVA, if p value was less than 5%, followed by Dunnett method to compare between vehicle-treated group and the others in the presence of a migration inducer. Values of p less than 5% were considered to be significant.

[2] = test system: rabbit vascular smooth muscle cells; assay: PDGF-induced migration of rabbit vascular smooth muscle cells (Boyden's chamber); conditions: treatment with 10 nM, FIG. 3
Procedure: as §1
Cells that proliferated to confluence were detached with trypsin, washed twice with an additive factor free medium, dispersed in SmBM containing 0.1% fetal bovine serum and prepared to a cell density of 5×10^5 cells/mL. Migration of cells was assayed according to Koyama et al. method (J. Biol. Chem. (1993) 268:13301-13308) using a 48-well Boyden's chamber (Neuro probe). To be more specific, 28 μL of SmBM containing 10 ng/mL of PDGF and 0.1% FBS was placed in the lower chamber and 50 μL of a cell dispersion preliminarily incubated with each assay compound for 10 minutes was placed in the upper chamber. […] The cells were counted under a high-power microscope (×200) in 4 fields per well and the number of cells that had migrated was averaged to determine the migration activity. […]

[3] = test system: Human mesangial cells; assay: PDGF-induced migration of human mesangial cells (Boyden's chamber)
Procedure: as §2, with “activity. […]” for “activity.”

With `CN1N=C2CCN(C(=O)[C@@H](COCc3ccccc3)NC(=O)C(C)(C)N)C[C@@]2(Cc2ccccc2)C1=O` [CP-424,391, capromorelin] the “action on the PDGF-induced migration of vascular smooth muscle cells (summary of Test 1)” value (“action on the PDGF-induced migration” for short) [1] was “potent inhibitory action” and the “suppressive action on PDGF-induced migration” value (shortened to “suppressive action”) [1] was “significant suppressive action”.
For `C[C@H](NC(=O)[C@@H](Cc1ccc2ccccc2c1)NC(=O)[C@@H](C)N)C(=O)N[C@@H](Cc1c[nH]c2ccccc12)C(=O)N[C@H](Cc1ccccc1)C(=O)N[C@@H](CCCCN)C(N)=O` [KP-102, Pralmorelin dihydrochloride] (H-[dA][d2Nal]AW[dF]K-NH2), the “action on the PDGF-induced migration” value [1] was “potent inhibitory action”, the “suppressive action” value [2] was “significant suppressive action” and the “concentration with significant suppression of PDGF-induced migration” value ([3]; FIG. 8) was at least 0.1 nM.
`CC(C)(N)C(=O)N[C@H](COCc1ccccc1)C(=O)N1CCC2(CC1)CN(S(C)(=O)=O)c1ccccc12` [MK-0677, ibutamorelin methanesulfonate] was tested, and the “action on the PDGF-induced migration” value [1] was “potent inhibitory action” and the “suppressive action” value [1] was “significant suppressive action”.
`CNC(=O)[C@@H](Cc1ccccc1)N(C)C(=O)[C@@H](Cc1ccc2ccccc2c1)N(C)C(=O)/C=C/CC(C)(C)N` [NN-703, tabimorelin] was tested, and the “action on the PDGF-induced migration” value [1] was “potent inhibitory action” and the “suppressive action” value [1] was “significant suppressive action”.
For `Cc1[nH]c2ccccc2c1C[C@@H](NC(=O)[C@@H](N)Cc1cnc[nH]1)C(=O)N[C@@H](C)C(=O)N[C@@H](Cc1c[nH]c2ccccc12)C(=O)N[C@H](Cc1ccccc1)C(=O)N[C@@H](CCCCN)C(N)=O` [hexarelin] (H-H[dTrp(2-Me)]AW[dF]K-NH2), the “action on the PDGF-induced migration” value [1] was “potent inhibitory action” and the “suppressive action” value [1] was “significant suppressive action”.
In the case of “GH: recombinant human growth hormone (Wako Pure Chemical Industries, Ltd.)”, the “action on the PDGF-induced migration” value [1] is reported as “no action” and the “action on PDGF-induced migration” value ([1]; at 0.1 μg/mL) is reported as “no action”.
“GHRH: human-type growth-hormone releasing hormone (Peptide Institute, Inc.) (YADAIFTNSYRKVLGQLSARKLLQDIMSRQQGESNQERGARARL; ends and bridges not checked; UniProt P01286 32-75, looked up)” was tested, and the “action on the PDGF-induced migration” value [1] was “no action” and the “action on PDGF-induced migration” value ([1]; at 10 nM) was “no action”.
GHRP-6 was tested, and the “action on the PDGF-induced migration” value [1] was “potent inhibitory action” and the “suppressive action” value [1] was “significant suppressive action”.
With ghrelin the “action on the PDGF-induced migration” value [1] was “potent inhibitory action”, the “suppressive action” value [2] was “significant suppressive action” and the “suppression of PDGF-induced migration” value ([3]; FIG. 9) was “This action was also verified”.
